Assay results published in patent publication US8460644B2, “Synergistic mixed poloxamer systems for the solubilisation of drugs” (IS Pharmaceuticals Limited, priority 2001, dated 2013).
Read-outs that look alike come from different tables or passages of the source.

Tests used:
[1] = Maximum additive concentration (MAC) and degree of synergistic solubilisation in aqueous P407+P188 mixtures; type: physicochemical
Experimental: The maximum additive concentration (MAC) and degree of synergistic solubilisation was determined for a selection of water insoluble and sparingly soluble actives in aqueous P407+P188 mixtures.
For each active, the MAC was determined in the following aqueous poloxamer solutions:
As an aid to evaluating the level of synergistic solubilisation present within the system, the experimental data given in FIGS. 1-3 also includes the calculated MAC's of the systems that would be expected if the poloxamers comprising the mixture were solubilising independently and the overall MAC were simply the sum of the individual MAC's for the two components or admixture.

[2] = cited from earlier work
[3] = 3% w/v P407 + 7% w/v P188 in water
[4] = 7% w/v P407 + 3% w/v P188 in water

SMILES | synergistic ratio, MACexperimental/MACadmixture [1, 3] | synergistic ratio, MACexperimental/MACadmixture [1, 4] | incidence of pain on injection ([2]; formulated in a mixture of propylene glycol and water) [%] | incidence of pain on injection ([2]; formulated in an emulsion form) [%]
Cc1ccc(C(C)C)cc1O [Carvacrol, 2-methyl-5-(1-methylethyl)phenol] | 2.1 | 1.8 | – | –
CCCCCCCCCC(=O)OCCN1CCN(CCCN2c3ccccc3Sc3ccc(C(F)(F)F)cc32)CC1 [Fluphenazine decanoate, 2-{4-[3-(2-trifluoromethyl-phenothiazin-10-yl)propyl]piperazin-1-yl}ethyl decanoate] | 3.6 | 1.6 | – | –
CCCCCCC(=O)OCCN1CCN(CCCN2c3ccccc3Sc3ccc(C(F)(F)F)cc32)CC1 [Fluphenazine enanthate, 2-{4-[3-(2-trifluoromethylphenothiazin-10-yl)propyl]piperazin-1-yl}ethyl heptanoate] | 2.5 | 1.8 | – | –
CCN(CC)CC(=O)Nc1c(C)cccc1C [Lidocaine, 2-diethylamino-2′,6′-acetoxylidide] | 1.5 | 1.4 | – | –
CN1C(=O)CN=C(c2ccccc2)c2cc(Cl)ccc21 [diazepam] | – | – | 37 | 0
